# Values of other authors as cited in publication PMC3185201 (Molecular pharmaceutics, 2011).
# System: NEP 24.11
# Settings: prior study
smiles,measurement,value
CC[C@H](C)[C@H](NC(=O)[C@H](Cc1ccccc1)NC(=O)[C@H](CCC(=O)O)NC(=O)[C@H](CCCCN)NC(=O)[C@H](C)NC(=O)[C@H](C)NC(=O)[C@H](CCC(N)=O)NC(=O)[C@@H]1CCCCNC(=O)CC[C@H](NC(=O)[C@H](CO)NC(=O)[C@@H](NC(=O)[C@H](CC(=O)O)NC(=O)[C@H](CO)NC(=O)[C@@H](NC(=O)[C@H](Cc2ccccc2)NC(=O)[C@@H](NC(=O)CNC(=O)[C@H](CCC(=O)O)NC(=O)C(C)(C)NC(=O)[C@@H](N)Cc2c[nH]cn2)[C@@H](C)O)[C@@H](C)O)C(C)C)C(=O)N[C@@H](Cc2ccc(O)cc2)C(=O)N[C@@H](CC(C)C)C(=O)N[C@@H](CCC(=O)O)C(=O)N1)C(=O)N[C@H]1CCC(=O)NCCCC[C@@H](C(=O)NCC(=O)N[C@@H](CCCNC(=N)N)C(=O)NCCCCCC(=O)N[C@@H](CS)C(N)=O)NC(=O)[C@H](C(C)C)NC(=O)[C@H](CC(C)C)NC(=O)[C@H](Cc2c[nH]c3ccccc23)NC1=O [EM3106B],Protection from the degradation by NEP 24.11,outstanding protection
